For 1 compound, EC50 results are on record in publication PMC8281983 (Journal of the American Chemical Society, 2021).

The assay has as its target T1, BRCA1-associated ATM activator 1 (BRAT1) (Homo sapiens, UniProt Q6PJG6).
T1 sequence (Q6PJG6 1-821): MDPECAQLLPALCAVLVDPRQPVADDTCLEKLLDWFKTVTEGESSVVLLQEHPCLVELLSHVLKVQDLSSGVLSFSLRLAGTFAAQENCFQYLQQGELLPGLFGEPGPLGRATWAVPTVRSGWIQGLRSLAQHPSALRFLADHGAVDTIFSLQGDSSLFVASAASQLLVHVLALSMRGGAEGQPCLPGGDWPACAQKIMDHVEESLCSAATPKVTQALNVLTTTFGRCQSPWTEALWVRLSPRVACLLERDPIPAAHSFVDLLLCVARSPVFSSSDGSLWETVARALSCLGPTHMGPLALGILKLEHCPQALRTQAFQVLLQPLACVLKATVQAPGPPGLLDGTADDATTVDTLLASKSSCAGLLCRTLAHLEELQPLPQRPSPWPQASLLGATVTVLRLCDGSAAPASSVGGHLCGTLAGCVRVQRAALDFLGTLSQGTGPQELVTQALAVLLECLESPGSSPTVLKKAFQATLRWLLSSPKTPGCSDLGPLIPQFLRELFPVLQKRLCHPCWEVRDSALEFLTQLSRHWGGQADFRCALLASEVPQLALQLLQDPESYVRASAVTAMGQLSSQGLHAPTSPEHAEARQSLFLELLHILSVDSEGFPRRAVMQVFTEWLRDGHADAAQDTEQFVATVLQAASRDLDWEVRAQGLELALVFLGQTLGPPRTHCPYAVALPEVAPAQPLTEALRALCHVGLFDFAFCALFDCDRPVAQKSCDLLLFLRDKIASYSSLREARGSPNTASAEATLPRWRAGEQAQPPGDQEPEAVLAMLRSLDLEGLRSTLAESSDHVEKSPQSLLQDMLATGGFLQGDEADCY
It counts as cell-based.

Regarding `C=C(C)C1CCC(=C)C2C3=C(C[C@@](C)(O)C3=O)C(=O)C(C)=C[C@@H]12` (stereo partly shown) [1d, curcusone D], the EC50 (usually the concentration at which the effect is half-maximal) stood at 2700 nM. This counts as single-digit micromolar.
